Activity calls are given as the source filed them.
How the values were obtained:
[1] = reduced cellular PGC1a acetyl-lysine signal – cell-based, cherry-picked samples, dose response (AID 720514); assay type: functional;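 also: potency may reflect raised or lowered acetylation signal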
[2] = target: T1, COUP transcription factor 2 (Homo sapiens, UniProt P24468); test: Luminescence-based cell-based high throughput dose response assay to identify inhibitors of COUP-TFII (NR2F2).; assay type: functional;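 also: HEK293 cells transiently cotransfected with COUP-TFII expression vector and reporter; luciferase reporter luminescence driven by COUP-TFII from the pX2-168 reporter plasmid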
T1 sequence (P24468 whole entry): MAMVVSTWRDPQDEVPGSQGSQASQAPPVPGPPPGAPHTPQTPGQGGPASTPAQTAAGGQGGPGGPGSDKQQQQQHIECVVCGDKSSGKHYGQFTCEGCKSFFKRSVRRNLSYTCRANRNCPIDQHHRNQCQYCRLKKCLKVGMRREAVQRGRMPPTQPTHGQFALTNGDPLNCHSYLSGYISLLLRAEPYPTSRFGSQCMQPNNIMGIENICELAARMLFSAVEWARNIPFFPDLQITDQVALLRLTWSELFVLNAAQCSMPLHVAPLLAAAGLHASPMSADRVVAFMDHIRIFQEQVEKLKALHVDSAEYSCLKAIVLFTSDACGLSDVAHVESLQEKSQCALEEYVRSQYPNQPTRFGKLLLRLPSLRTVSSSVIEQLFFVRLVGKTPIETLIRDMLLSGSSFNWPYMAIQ

[3] = Dd2 malaria parasite growth inhibition potency – SYBR Green, dry powder samples, dose response (AID 1159566); assay type: functional, cell-based;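 also: potency for growth inhibition with lower SYBR green DNA signal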
[4] = P. falciparum Dd2 growth inhibitors, dose response, SYBR Green, cherry-picked samples (AID 1159567); assay type: functional, cell-based
[5] = toxicity to human hepatoma HepG2 cells – cell-based, cherry-picked samples, cytotoxicity control, dose response (AID 1159577); assay type: functional
[6] = growth inhibition of yeast DHODH-expressing 3D7 parasites – SYBR Green, dry powder samples, dose response (AID 1159570); assay type: functional, cell-based;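 also: parasite growth measured after 72 hours of compound exposure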
[7] = growth inhibition of PfATP4-mutant resistant parasites – NITD609-resistant line, SYBR Green, dry powder, dose response (AID 1159571); assay type: functional, cell-based;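 also: parasites synchronized at ring stage by sorbitol before testing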
[8] = HIV-1 Vif–A3G interaction blockers – biochemical, TR-FRET, GST-Vif 1-94, biotin-A3G peptide, dose response retest, primary screen (AID 1117319); assay type: functional;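 also: TR-FRET signal of purified GST-Vif binding a biotinylated A3G peptide; inhibitors lower the FRET signal by blocking Vif and A3G binding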
Protein RecA = target: T2, Protein RecA (Mycobacterium tuberculosis, UniProt P9WHJ3); test: Fluorescence Cell-Free Homogeneous Dose Retest to Identify Inhibitors of RecA-Intein Splicing Activity. [Related pubchem assays (depositor defined):AID2097, AID2223, AID489010, AID492950]; assay type: functional
T2 sequence (P9WHJ3 whole entry): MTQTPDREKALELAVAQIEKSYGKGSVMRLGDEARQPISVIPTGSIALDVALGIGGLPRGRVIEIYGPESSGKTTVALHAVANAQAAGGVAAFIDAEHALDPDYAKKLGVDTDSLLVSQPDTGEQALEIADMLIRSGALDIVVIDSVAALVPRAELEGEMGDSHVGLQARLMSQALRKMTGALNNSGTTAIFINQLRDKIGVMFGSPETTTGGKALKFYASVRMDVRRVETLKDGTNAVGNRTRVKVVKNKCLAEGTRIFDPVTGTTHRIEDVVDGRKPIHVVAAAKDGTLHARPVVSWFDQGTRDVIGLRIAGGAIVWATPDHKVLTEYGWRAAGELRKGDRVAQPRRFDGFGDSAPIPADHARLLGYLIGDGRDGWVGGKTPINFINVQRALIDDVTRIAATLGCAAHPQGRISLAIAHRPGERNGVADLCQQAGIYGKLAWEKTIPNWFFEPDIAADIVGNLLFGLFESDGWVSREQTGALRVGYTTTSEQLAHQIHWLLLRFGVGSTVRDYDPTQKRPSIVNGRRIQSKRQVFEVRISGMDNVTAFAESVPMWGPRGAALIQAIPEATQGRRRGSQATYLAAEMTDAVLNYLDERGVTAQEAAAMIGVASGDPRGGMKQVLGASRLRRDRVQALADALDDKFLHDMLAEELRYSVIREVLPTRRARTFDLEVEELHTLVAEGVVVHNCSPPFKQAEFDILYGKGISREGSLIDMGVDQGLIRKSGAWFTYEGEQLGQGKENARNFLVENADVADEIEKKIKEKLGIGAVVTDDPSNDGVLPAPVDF

[9] = target: T3, Tyrosyl-DNA phosphodiesterase 2 (Homo sapiens, UniProt O95551); test: potency against TDP2 phosphodiesterase activity – biochemical, epi absorbance, IC50, dose response (AID 743297)
T3 sequence (O95551 whole entry): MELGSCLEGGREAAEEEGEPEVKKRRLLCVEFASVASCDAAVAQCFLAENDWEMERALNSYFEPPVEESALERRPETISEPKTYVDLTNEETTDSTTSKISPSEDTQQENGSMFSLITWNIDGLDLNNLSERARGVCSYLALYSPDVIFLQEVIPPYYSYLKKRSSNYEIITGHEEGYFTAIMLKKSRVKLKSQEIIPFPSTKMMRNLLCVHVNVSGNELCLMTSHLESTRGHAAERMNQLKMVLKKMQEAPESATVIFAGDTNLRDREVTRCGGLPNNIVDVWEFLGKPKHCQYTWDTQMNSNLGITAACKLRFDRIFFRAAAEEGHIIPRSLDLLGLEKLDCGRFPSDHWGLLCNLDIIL

[10] = toxicity toward HepG2 liver cells – cell-based, plate reader, cherry-pick, antagonist series, cytotoxicity control, dose response (AID 743416); assay type: functional
[11] = blockers of bursicon-stimulated LGR2 cAMP reporter – cell-based, HEK293, CRE-luciferase reporter, cherry pick, set 2, dose response (AID 743343); assay type: functional;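 also: transfected cells were stimulated with diluted bursicon conditioned medium after compound addition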
[12] = A549 cell cytotoxicity, dose response, cytotoxicity control, plate reader, cherry-pick, antagonist series (AID 743412); assay type: functional, cell-based
[13] = blockade of melanocortin 4 receptor signaling – cell-based, plate reader, cherry pick, counter-screen for LGR2 antagonist project, dose response (AID 743444); assay type: functional;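 also: transfected HEK 293 cells stimulated with alpha-MSH peptide; potency of inhibitors of the alpha-MSH evoked signal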
[14] = viability loss in HEK293 cells – cell-based, plate reader, cherry-picked samples, cytotoxicity control, dose response (AID 743446); assay type: functional
[15] = target: Potassium channel subfamily K member 9 (Homo sapiens, UniProt Q9NPC2); test: KCNK9 flux blockade, concentration-response – cell-based, FluxOR thallium flux, selectivity assay for TASK1 inhibitor project, SAR follow-up (AID 652211); assay type: functional;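 also: potency is for inhibitors of the channel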
Chain of Potassium channel subfamily K member 9 (Q9NPC2 whole entry): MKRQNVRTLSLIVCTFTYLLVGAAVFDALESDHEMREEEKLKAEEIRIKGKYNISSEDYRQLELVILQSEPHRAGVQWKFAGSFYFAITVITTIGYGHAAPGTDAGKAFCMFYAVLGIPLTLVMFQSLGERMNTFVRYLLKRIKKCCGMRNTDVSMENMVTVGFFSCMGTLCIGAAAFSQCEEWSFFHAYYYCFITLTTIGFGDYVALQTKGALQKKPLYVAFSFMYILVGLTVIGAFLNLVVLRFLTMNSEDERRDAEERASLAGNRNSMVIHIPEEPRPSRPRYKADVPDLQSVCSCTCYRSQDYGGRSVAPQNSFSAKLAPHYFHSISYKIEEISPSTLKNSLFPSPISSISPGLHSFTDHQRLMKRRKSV

H9c2 = test: cells; assay type: functional, cell-based; settings: Rattus norvegicus, H9c2, Myocardium;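 also: confirmatory concentration-response retest of ultra-high-throughput screening hits for modulation of myocardial damage; cell death induced by hydrogen peroxide oxidative stress; compound pretreatment for 60 min then peroxide exposure for 2 h; potency is for protecting the cells against peroxide damage rather than for killing them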
[16] = IC50 of Artemis nuclease activity blockers – biochemical, fluorescence intensity, dose response (AID 720701); assay type: functional;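 also: Artemis endonuclease enzyme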

With `C[C@H]1CN([C@@H](C)CO)S(=O)(=O)c2ccc(C#CC3CCCCC3)cc2O[C@@H]1CN(C)Cc1cccnc1` the AC50 [1] was 10.4 µM (active).
For `Cc1c(C)n(Cc2ccccc2)c2ncnc(Cl)c12`, the IC50 [2] was 10.7 µM (inactive).
In the case of `COc1ccc(NC(=O)N(C)C[C@@H]2Oc3c(NC(=O)c4nc5ccccc5s4)cccc3C(=O)N([C@@H](C)CO)C[C@H]2C)cc1`, the AC50 [3] is reported as 1.3 µM (active), the AC50 [4] is reported as 1.96 µM (active) and the AC50 [5] is reported as > 39 µM (inactive). For the same molecule, the AC50 [6] was 0.499 µM (active) and the AC50 [7] was 0.606 µM (active).
With `CC(OC(=O)/C=C/c1ccco1)C(=O)NC1CCCCC1` (centres undefined) the IC50 [8] was > 100 µM (active).
In the case of `S=C(Nc1ccc2nsnc2c1)N1CCCCCC1`, the EC50 (Protein RecA) is reported as 46.7 µM (active) and the IC50 [9] is reported as > 128 µM (inactive).
For `N#C[C@H]1[C@H](c2ccc(C#Cc3ccccc3F)cc2)[C@H](CO)N1C(=O)C1CCCC1`, the AC50 [10] was 34.5 µM (active), the AC50 [11] was 5.64 µM (active) and the AC50 [12] was 23.6 µM (active). For the same molecule, the AC50 [13] was 4.57 µM (active) and the AC50 [14] was 8.77 µM (active).
In the case of `Cc1cccc(C(=O)Nc2cccc(NC(=O)c3ccccc3C)c2)c1`, the IC50 [15] is reported as 0.94 µM (active).
With `Cc1nc(NC(=O)c2cc3c(C)nn(-c4ccccc4)c3s2)sc1C(=O)Nc1ccccc1` the IC50 (H9c2) was > 79 µM (inactive) and the IC50 [16] was 1.22 µM (active).
With `O=C(Nc1cccc(NC(=O)c2ccccc2Cl)c1)c1ccccc1` the IC50 [15] was 33.4 µM (active).
